The values that follow are results of earlier work, collected in patent US20260027125A1, “AN ANTIBACTERIAL PARENTERAL FORMULATION AND METHODS THEREOF” (BUGWORKS RESEARCH INDIA PVT. LTD., priority 2022, published 2026).

The conditions of the series: counter ion selected for salt screening; cited from earlier work.

Consider `O=C(O)CC(O)C(=O)O` (stereo not shown) [malic acid], for which the “pKa (second value)” value is given as 3.4, 5.11.
